Reference: patent US6855730B2, “3-methylidenyl-2-indolinone modulators of protein kinase” (Sugen, Inc., priority 1998, dated 2005)

What was measured:
[1] = target: Myc-GyrB-FGFR fusion protein (Homo sapiens, UniProt P11362); assay: Biochemical FGFR assay (ELISA); settings: read-out: bio fgfR1 IC50
flkGST = target: T1, flkGST (Homo sapiens, UniProt P35968); assay: bio flkGST assay; assay type: biochemical
T1 construct: GST
T1 sequence (P35968 786-1356 limits assumed): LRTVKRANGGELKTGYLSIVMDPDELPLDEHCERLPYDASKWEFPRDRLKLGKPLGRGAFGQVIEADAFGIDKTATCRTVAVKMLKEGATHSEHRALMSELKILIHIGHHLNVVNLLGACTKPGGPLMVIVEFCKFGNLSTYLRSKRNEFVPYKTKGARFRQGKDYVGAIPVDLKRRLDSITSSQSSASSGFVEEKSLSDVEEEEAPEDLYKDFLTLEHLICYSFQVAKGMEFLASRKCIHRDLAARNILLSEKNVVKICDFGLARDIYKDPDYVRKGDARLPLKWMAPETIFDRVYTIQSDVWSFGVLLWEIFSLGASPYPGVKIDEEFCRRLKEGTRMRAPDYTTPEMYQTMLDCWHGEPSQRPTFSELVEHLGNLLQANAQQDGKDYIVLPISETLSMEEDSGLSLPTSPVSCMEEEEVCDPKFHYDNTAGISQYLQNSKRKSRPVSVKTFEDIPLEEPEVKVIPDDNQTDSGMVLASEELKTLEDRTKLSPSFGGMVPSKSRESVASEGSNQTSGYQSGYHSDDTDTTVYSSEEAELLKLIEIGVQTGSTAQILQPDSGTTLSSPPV

Chain of Myc-GyrB-FGFR fusion protein (P11362 478-767 limits assumed): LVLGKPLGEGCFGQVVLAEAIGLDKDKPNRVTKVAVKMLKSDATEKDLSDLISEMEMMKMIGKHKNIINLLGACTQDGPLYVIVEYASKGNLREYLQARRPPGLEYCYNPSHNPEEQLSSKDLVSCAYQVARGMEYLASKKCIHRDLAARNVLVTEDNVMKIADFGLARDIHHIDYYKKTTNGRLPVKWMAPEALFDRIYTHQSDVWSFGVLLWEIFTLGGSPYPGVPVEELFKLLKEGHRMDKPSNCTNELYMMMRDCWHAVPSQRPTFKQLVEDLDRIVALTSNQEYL

SMILES | IC50 [1] | IC50 (flkGST)
CCOC(=O)c1c(C)[nH]c(/C=C2\C(=O)Nc3cc(-c4ccc(F)cc4)ccc32)c1CCC(=O)O [Example 108, 4-(2-Carboxyethyl)-5-[6-(4-fluorophenyl)-2-oxo-1,2-dihydro-indol-3-ylidenemethyl]-2-methyl-1H-pyrrole-3-carboxylic acid ethyl ester] | 2570 nM | 1080 nM
COc1ccccc1-c1ccc2c(c1)NC(=O)/C2=C\c1[nH]c(C)cc1CCC(=O)O [Example 109, 3-{2-[6-(2-Methoxyphenyl)-2-oxo-1,2-dihydroindol-3-ylidenemethyl]-5-methyl-1H-pyrrol-3-yl}-propionic acid] | > 20000 nM | 2680 nM
Cc1cc(CCC(=O)O)c(/C=C2\C(=O)Nc3ccc(Cl)cc32)[nH]1 [Example 111, 3-[2-(5-Chloro-2-oxo-1,2-dihydroindol-3-ylidenemethyl)-5-methyl-1H-pyrrol-3-yl]propionic acid] | 470 nM | 430 nM

More lines, now with the values ahead:

IC50 [1] | IC50 (flkGST) | SMILES
6160 nM | 2150 nM | Cc1cc(CCC(=O)O)c(/C=C2\C(=O)Nc3cc(-c4ccc(F)cc4)ccc32)[nH]1 [Example 107, 3-{2-[6-(4-Fluorophenyl)-2-oxo-1,2-dihydroindol-3-ylidenemethyl]-5-methyl-1H-pyrrol-3-yl}propionic acid]
17500 nM | 3050 nM | CCOC(=O)c1c(C)[nH]c(/C=C2\C(=O)Nc3cc(-c4ccccc4OC)ccc32)c1CCC(=O)O [Example 110, 4-(2-Carboxyethyl)-5-[6-(2-methoxyphenyl)-2-oxo-1,2-dihydro-indol-3-ylidenemethyl]-2-methyl-1H-pyrrol-3-yl-carboxylic acid ethyl ester]
> 20000 nM |  | O=C1Nc2ccc(Br)cc2/C1=C/c1cc2ccccc2[nH]1 [Example 165, 5-Bromo-3-(1H-indol-2-ylmethylene)-1,3-dihydro-indol-2-one]
> 20000 nM |  | Cc1cccc2c1/C(=C/c1cc3ccccc3[nH]1)C(=O)N2 [Example 166, 3-(1H-indol-2-ylmethylene)-4-methyl-1,3-dihydro-indol-2-one]
